The NIST ThermoML archive (doi:10.1021/je800203s)

Tests used:
[1] = Crystal
[2] = molar heat capacity at constant pressure; conditions: 101.33 kPa
[3] = Molar enthalpy of transition or fusion; conditions: Crystal

COc1ccc(CC#N)cc1OC [(3,4-dimethoxyphenyl)acetonitrile]
Conditions	Molar enthalpy of transition or fusion [kcal/mol]	Triple point temperature [K]
[1]	–	337.08
[3]	5.91	–

[2]
Conditions	molar heat capacity at constant pressure [J/K/mol]
78.32 K, Crystal	80.52
80 K, Crystal	82.15
81.06 K, Crystal	82.37
84.38 K, Crystal	84.71
85 K, Crystal	85.39
87.3 K, Crystal	87.42
90 K, Crystal	88.81
90.17 K, Crystal	89.84
93.05 K, Crystal	91.31
95 K, Crystal	92.41
95.92 K, Crystal	93.07
98.78 K, Crystal	94.96
100 K, Crystal	96.15
102.8 K, Crystal	97.78
105 K, Crystal	100
106.79 K, Crystal	101.8
109.62 K, Crystal	103.7
110 K, Crystal	104
112.5 K, Crystal	106.5
115 K, Crystal	108
115.38 K, Crystal	108.6
118.25 K, Crystal	111
120 K, Crystal	112.1
121.12 K, Crystal	113.3
123.99 K, Crystal	115.6
125 K, Crystal	116.3
126.87 K, Crystal	118
129.71 K, Crystal	120.3
130 K, Crystal	120.4
132.55 K, Crystal	122.1
135 K, Crystal	124.6
135.4 K, Crystal	124.9
138.26 K, Crystal	127.8
140 K, Crystal	128.8
141.12 K, Crystal	129.7
143.94 K, Crystal	131.8
145 K, Crystal	133
146.78 K, Crystal	134.2
149.62 K, Crystal	136.7
150 K, Crystal	137.1
153.27 K, Crystal	139.5
155 K, Crystal	141.2
156.88 K, Crystal	142.9
159.69 K, Crystal	144.6
160 K, Crystal	145.3
162.54 K, Crystal	146.5
165 K, Crystal	149.3
165.37 K, Crystal	148.6
168.16 K, Crystal	151.4
170 K, Crystal	153.3
170.93 K, Crystal	153.9
173.78 K, Crystal	156.3
175 K, Crystal	157.2
176.63 K, Crystal	157.8
179.46 K, Crystal	159.5
180 K, Crystal	161
182.27 K, Crystal	162.3
185 K, Crystal	164.7
185.06 K, Crystal	164.3
187.83 K, Crystal	167.4
190 K, Crystal	168.4
190.65 K, Crystal	168.8
195 K, Crystal	172
196.37 K, Crystal	174.3
199.23 K, Crystal	175.5
200 K, Crystal	175.6
202.71 K, Crystal	177.3
205 K, Crystal	179
206.12 K, Crystal	180.1
208.91 K, Crystal	182.6
210 K, Crystal	182.5
211.79 K, Crystal	184.7
214.67 K, Crystal	185.5
215 K, Crystal	185.8
217.53 K, Crystal	187.8
220 K, Crystal	189.1
220.39 K, Crystal	189.8
223.24 K, Crystal	192.6
225 K, Crystal	192.4
226.07 K, Crystal	194.1
228.97 K, Crystal	196
230 K, Crystal	195.6
231.92 K, Crystal	198.1
234.86 K, Crystal	200.2
235 K, Crystal	198.8
237.82 K, Crystal	201.4
240 K, Crystal	202
240.78 K, Crystal	203
244.26 K, Crystal	204.7
245 K, Crystal	205.2
247.72 K, Crystal	206
250 K, Crystal	208.4
250.62 K, Crystal	206.7
253.5 K, Crystal	208.8
255 K, Crystal	211.6
256.38 K, Crystal	210.7
259.24 K, Crystal	213.1
260 K, Crystal	214.9
262.1 K, Crystal	214.8
264.94 K, Crystal	216.4
265 K, Crystal	218.2
267.89 K, Crystal	218.3
270 K, Crystal	221.6
270.93 K, Crystal	221.1
273.96 K, Crystal	223.6
275 K, Crystal	225.2
276.98 K, Crystal	226.3
279.99 K, Crystal	228.9
280 K, Crystal	228.8
283 K, Crystal	231.4
285 K, Crystal	232.6
285.98 K, Crystal	234.1
288.95 K, Crystal	236.8
290 K, Crystal	236.6
291.89 K, Crystal	239.8
294.78 K, Crystal	242.2
295 K, Crystal	240.8
297.68 K, Crystal	245.2
298.15 K, Crystal	243.5
300 K, Crystal	245.2
300.71 K, Crystal	247.1
303.68 K, Crystal	250.1
305 K, Crystal	249.8
306.62 K, Crystal	252.2
309.56 K, Crystal	254.2
310 K, Crystal	254.8
312.48 K, Crystal	256
315 K, Crystal	260
315.49 K, Crystal	259.8
318.59 K, Crystal	261.9
320 K, Crystal	265.6
321.66 K, Crystal	267
324.72 K, Crystal	275
327.73 K, Crystal	284.8
330.67 K, Crystal	313
340 K, Liquid	350.5
342.04 K, Liquid	352
345 K, Liquid	353.2
345.02 K, Liquid	352.7
348.08 K, Liquid	354.6
350 K, Liquid	356
351.14 K, Liquid	356.8
354.19 K, Liquid	358.7
355 K, Liquid	358.7
357.24 K, Liquid	360.1
360 K, Liquid	361.4
360.28 K, Liquid	361.3
363.32 K, Liquid	362.6
365 K, Liquid	363.9
366.35 K, Liquid	364.4
369.38 K, Liquid	366.3
370 K, Liquid	366.3
372.4 K, Liquid	367.9
375 K, Liquid	368.7
375.42 K, Liquid	368.7
378.43 K, Liquid	370.1
380 K, Liquid	371
381.44 K, Liquid	371.6
384.44 K, Liquid	373
385 K, Liquid	373.3
387.44 K, Liquid	374.5
390 K, Liquid	375.7
390.43 K, Liquid	376.1
393.41 K, Liquid	377.4
395 K, Liquid	378.4
396.39 K, Liquid	379.4
399.38 K, Liquid	380.9
400 K, Liquid	381.5
